Data as given in patent publication US20220235136A1, “METHODS AND COMPOSITIONS FOR TREATING A DISEASE OR DISORDER” (YALE UNIVERSITY, priority 2019, published 2022).

Key:
B16 melanoma = assay: subcutaneous B16 melanoma mouse tumor model; settings: alone or combination
Method: For B16 tumor model, C57BL/6 mice were inoculated subcutaneously with B16 melanoma at 2×1^5 per mouse. […] CD93 mAb (300 μg i.p.) treatment was administrated on the day of randomization (day 0), day 4 and day 9. 5-FU (3.5 mg i.p.) was administrated on day 2 and day 7. Measurements of tumor size were taken every 2 or 3 days. When tumor volume was exceeding 2000 mm^3 and/or ulceration formed, tumor bearing mice were considered as death for the calculation of survival curve.

CD93 = molecular target: T1, CD93 (Homo sapiens, UniProt Q9NPY3); assay: binding of Ig fusion proteins to CD93 transfectant (flow cytometry)
T1 construct: expressed in transfected cells; host or cells: 293 cells (CD93+ 293)
T1 sequence (Q9NPY3 22-652): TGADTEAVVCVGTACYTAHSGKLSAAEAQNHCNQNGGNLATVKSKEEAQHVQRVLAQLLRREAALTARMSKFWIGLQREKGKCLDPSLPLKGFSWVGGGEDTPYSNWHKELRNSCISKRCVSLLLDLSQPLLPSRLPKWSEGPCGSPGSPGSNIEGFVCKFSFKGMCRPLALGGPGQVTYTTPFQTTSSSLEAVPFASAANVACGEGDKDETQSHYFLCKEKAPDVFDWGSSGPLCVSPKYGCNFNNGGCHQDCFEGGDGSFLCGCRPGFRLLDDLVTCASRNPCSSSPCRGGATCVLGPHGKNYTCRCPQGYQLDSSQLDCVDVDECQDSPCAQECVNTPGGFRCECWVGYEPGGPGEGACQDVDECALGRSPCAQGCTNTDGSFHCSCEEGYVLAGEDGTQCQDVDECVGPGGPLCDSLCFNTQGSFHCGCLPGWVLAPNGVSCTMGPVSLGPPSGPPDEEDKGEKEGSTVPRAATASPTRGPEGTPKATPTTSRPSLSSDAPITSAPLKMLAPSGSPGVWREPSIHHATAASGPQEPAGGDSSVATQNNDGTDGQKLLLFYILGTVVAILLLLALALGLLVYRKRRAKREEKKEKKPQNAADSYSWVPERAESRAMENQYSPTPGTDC
Excerpt: FIGS. 10A-10B show identification of the binding domain on IGFBP7 for CD93. Each extracellular domain for IGFBP7, including insulin binding (IB). Kazal, and Ig, was swapped with the corresponding domain on IGFBPL1 using PCR cloning and fused to a C-terminal Ig. These chimeric mutants were transiently expressed in HEK293T cells and supernatants were used to stain CD93 transfectant. FIG. 10A depicts whether multiple chimeric IGFBP7 mutants bind to CD93. FIG. 10B depicts various human genes containing IB-domain constructed onto an expression vector containing Fc-Tag. Constructs were transiently transduced into HEK293T cells to produce Fc tagged fusion proteins in the supernatant. Supernatant was used to stain CD93 transfectant by flow cytometry. Binding index represents the ratio of binding MFI of CD93 transfectant to control cells.
The IGFBP7-IGFBPL1 chimeras were generated by two-step PCR. […]
Cell surface and intercellular staining and analysis by flow cytometry were followed the protocol previously described (71). Dead cells were excluded with SYTOX® (Blue Dead Cell Stain Kit (Thermo Fisher Scientific). Flow cytometric analysis was conducted with a BD FACS Calibur or a BD LSRFortessa™ cell analyzer (BD Bioscience, Franklin Lakes, N.J. USA), and then data were analyzed by FlowJo software (Tree Star Inc.)

human IGF1R = molecular target: T2, human IGF1R (Homo sapiens, UniProt P08069); assay: IGFBP7-Ig binding to IGF1R transfected CHO cells (flow cytometry)
T2 construct: expressed in transfected cells; host or cells: CHO
T2 sequence (P08069 31-736 limits assumed): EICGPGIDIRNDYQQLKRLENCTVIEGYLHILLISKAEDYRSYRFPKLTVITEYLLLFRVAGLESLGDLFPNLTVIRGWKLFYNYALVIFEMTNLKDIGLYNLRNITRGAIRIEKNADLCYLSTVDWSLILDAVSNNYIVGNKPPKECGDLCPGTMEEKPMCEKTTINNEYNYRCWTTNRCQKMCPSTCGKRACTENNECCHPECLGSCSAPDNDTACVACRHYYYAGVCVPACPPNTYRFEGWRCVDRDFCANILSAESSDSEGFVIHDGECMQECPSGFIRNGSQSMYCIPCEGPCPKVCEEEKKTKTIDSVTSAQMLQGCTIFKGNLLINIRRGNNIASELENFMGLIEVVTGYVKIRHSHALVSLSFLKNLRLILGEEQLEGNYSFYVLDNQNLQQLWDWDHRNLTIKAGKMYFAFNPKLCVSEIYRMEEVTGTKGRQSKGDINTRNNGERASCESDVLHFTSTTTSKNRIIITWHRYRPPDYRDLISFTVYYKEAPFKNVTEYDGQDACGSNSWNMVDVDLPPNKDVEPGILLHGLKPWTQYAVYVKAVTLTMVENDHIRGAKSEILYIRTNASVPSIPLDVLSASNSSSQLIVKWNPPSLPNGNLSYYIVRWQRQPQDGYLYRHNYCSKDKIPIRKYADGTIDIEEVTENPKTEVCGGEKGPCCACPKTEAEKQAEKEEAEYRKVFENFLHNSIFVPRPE
T2 sequence (P08069 741-1367 limits assumed): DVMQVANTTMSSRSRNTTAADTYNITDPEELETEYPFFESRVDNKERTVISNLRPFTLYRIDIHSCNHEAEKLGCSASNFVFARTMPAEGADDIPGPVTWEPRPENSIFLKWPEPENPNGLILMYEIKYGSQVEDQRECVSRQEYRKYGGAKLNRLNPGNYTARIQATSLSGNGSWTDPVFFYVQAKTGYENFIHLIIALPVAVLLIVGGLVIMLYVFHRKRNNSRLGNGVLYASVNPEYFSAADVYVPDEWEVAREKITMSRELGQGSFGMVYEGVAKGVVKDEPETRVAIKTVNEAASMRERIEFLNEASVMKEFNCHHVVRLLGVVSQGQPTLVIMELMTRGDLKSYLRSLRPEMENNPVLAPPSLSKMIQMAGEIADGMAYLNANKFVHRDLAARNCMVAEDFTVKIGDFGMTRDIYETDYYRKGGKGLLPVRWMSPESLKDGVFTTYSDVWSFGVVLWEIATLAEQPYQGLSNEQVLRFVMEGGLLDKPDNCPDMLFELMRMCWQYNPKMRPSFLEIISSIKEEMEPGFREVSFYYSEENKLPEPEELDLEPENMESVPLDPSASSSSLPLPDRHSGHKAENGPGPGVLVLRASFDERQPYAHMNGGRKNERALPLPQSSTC
Method: Wild type CHO and IGF1R transfected CHO cells were stained for human IGF1R staining antibody to confirm surface IGF1R expression. At the same time, cells were incubated with IGFBP7-Ig for possible interaction by flow cytometry analysis, […]

CD93 binding by MMRN2 = molecular target: T3, CD93 binding by MMRN2 (Homo sapiens, UniProt Q9NPY3); assay: MMRN2-Ig binding to CD93-expressing CHO cells in the presence of IGFBP7-His; settings: IGFBP7 added
T3 construct: expressed in transfected cells
T3 sequence (Q9NPY3 22-652): T1 sequence (Q9NPY3 22-652)
T3 sequence (Q9H8L6 23-949 partner): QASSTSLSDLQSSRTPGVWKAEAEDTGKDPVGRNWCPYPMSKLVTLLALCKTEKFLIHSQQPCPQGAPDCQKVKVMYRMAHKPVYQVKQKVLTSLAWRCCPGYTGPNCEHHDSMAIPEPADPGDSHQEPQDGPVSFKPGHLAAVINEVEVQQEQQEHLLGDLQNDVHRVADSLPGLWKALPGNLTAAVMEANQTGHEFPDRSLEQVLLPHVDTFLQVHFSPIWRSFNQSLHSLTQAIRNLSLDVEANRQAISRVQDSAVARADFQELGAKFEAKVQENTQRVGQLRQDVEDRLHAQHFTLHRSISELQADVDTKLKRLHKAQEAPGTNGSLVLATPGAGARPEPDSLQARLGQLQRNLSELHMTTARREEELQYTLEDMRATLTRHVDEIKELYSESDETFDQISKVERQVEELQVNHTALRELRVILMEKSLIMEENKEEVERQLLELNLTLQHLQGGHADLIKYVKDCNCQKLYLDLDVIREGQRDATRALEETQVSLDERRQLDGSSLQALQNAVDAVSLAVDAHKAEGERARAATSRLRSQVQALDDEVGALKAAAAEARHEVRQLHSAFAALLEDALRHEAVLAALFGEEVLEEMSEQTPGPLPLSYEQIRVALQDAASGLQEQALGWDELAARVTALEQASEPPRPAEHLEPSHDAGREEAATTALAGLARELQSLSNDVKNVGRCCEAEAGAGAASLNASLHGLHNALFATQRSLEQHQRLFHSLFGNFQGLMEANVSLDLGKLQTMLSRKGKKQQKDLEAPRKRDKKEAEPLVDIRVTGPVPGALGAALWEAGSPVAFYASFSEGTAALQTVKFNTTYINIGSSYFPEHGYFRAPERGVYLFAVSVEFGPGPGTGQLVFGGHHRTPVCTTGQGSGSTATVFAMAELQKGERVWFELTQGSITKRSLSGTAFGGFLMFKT
Method: In FIG. 28A, binding of HEK293 T cells transfected to express group 14 C-type lectin molecules were stained for the binding of IGFBP7-Ig and MMRN2-Ig. In FIG. 28B. CHO cells stably expressing CD93 were stained with control or MMRN2-Ig, with or without the presence of IGFBP7-His protein. In FIG. 28C, well coated with IGFBP7-His protein were incubated with CD93-His protein before examining for MMRN2-Ig binding by ELISA. Wells coated with CD93-His protein were used as a positive control. In FIG. 28D. HEK293T cells transfected with control or CD93 construct were stained with MMRN-Ig for binding, with or without the presence of anti-mCD93 (7C10). In FIG. 28E HEK293T cells transfected to express different mouse CD93 mutants were stained with anti-CD93 (7C10), IGFBP7-Ig, and MMRN2-Ig.

HUVEC cells = assay: HUVEC tube formation and transwell migration assay with exogenous IGFBP7 protein; type: cell-based, human
Method: Pooled human umbilical vein ECs (HUVEC) purchased from Thermo Fisher were cultured in Medium 200 with LVES (Life Technologies). C57BL/6 mouse primary aortic ECs and the endothelium culture medium with supplement were purchased from Cell Biologics. For tube formation, HUVECs at 2×10^4 cells/ml were plated on Matrigel in 24-well plate. Image was recorded even 4-6 hours after incubation. The Transwell 6.5 mm polycarbonate membrane inserts pre-loaded in 24-well culture plates (Corning 3422, 8 um) were used in the cell migration model. HUVEC cells at 1×10^5/ml in 200 μl were loaded into each 24-well insert with 500 μl IBS-containing medium with different reagents in the lower chamber. After approximately 20 hours, the migrated cells were fixed with methanol, stained with Giemsa solution and counted under a light microscope.

[1] = tested on: IGFBP7 expression in tumor endothelial cells; settings: 24 hours after treatment; published RNA-Seq data; cited from earlier work

For O=c1[nH]cc(F)c(=O)[nH]1 [5-FU, 5-fluorouracil], the B16 tumor growth (B16 melanoma) was “modestly inhibited”.
For “IGFBP7: a secreted protein of the insulin growth factor binding protein (IGFBP) family; recombinant protein / Fc fusion”, the “binding to CD93 293 cells / CD93 transfectant” value (CD93; flow cytometry) was “strongly”, the “binding to group 14 C-type lectin molecules” value (CD93; transfected HEK293T cells) was “only bound to CD93” and the “binding to human IGF1R transfectant” value (human IGF1R) was “fails to bind”. For the same compound, the “effect on the CD93 binding by MMRN2” value (CD93 binding by MMRN2) was “did not interfere”, the “tube formation or EC migration in CD93 knockdown HUVEC cells” value (HUVEC cells; CD93 siRNA) was “lost its effect” and the “tube formation and proliferation of wild type HUVEC cells” value (HUVEC cells; exogenous protein added) was “increased”.
For aflibercept: a VEGF inhibitor, the “IGFBP7 in tumor ECs” value [1] is listed as “significantly inhibited”.
